Measured values: article PMC6158327, “Negative Allosteric Modulators of mGlu7 Receptor as Putative Antipsychotic Drugs” (Frontiers in Molecular Neuroscience, 2018)
Where a name gives a salt, the structure may show the parent alone.

How the values were obtained:
[1] = target: mGlu7; design: method as in Wright et al., 2000; details: ref Wright et al., 2000; read-out: Ki (affinity of mGlu7 for glutamate); cited from earlier work
[2] = target: T1, mGlu7 receptor (Homo sapiens, UniProt Q14831); assay: HTRF cAMP assay: antagonism of L-Glu (EC80) inhibition of forskolin-stimulated cAMP accumulation (NAM profile); type: cell-based; details: inhibition of forskolin-stimulated cAMP accumulation
T1 construct: expressed in transfected cells
T1 sequence (Q14831 35-915): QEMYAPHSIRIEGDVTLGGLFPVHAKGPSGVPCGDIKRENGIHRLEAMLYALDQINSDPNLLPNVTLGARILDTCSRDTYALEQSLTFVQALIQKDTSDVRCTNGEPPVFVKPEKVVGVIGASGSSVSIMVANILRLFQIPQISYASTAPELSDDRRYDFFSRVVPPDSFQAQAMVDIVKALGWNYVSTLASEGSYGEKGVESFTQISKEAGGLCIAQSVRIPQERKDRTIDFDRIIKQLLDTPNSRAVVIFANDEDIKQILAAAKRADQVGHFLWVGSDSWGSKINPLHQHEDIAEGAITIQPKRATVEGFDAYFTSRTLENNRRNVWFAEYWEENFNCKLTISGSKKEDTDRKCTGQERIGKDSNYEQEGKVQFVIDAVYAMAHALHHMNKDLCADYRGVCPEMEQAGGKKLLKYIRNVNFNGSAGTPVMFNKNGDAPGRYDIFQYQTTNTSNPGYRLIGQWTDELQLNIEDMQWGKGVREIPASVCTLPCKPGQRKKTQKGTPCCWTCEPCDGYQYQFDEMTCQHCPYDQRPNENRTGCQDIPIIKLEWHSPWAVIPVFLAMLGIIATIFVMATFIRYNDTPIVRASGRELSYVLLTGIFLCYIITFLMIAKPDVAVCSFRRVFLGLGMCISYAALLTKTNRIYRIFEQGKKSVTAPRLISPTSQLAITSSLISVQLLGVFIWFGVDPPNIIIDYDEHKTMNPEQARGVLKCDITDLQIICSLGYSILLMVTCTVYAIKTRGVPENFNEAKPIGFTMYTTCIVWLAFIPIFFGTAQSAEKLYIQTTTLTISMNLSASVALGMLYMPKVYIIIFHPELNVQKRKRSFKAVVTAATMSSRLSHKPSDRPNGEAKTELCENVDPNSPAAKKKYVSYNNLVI
Procedure: (§1) A homogeneous time-resolved fluorescence (HTRF) cAMP dynamic 2 (Cisbio, Codolet, France) assay was performed as previously described ([Chruścicka et al., 2015]) with recombinant cell lines. Briefly, HEK 293 T-REx cells stably expressing mGlu7 receptor, were collected and suspended in Hanks-HEPES buffer. The cell suspension was added to compounds solution with 5 μM of forskolin (final concentration). After 5 min incubation in 37°C, 5 μl of cAMP-d2 conjugate in lysis buffer was added and mixed with the 10 μl cell suspension by means of an automated pipetting system (Tecan Evo 200, Tecan, Mannedorf, Switzerland). Next, 5 μl anti-cAMP cryptate conjugate was added and the fluorescence at 620 and 665 nm was read after 1 h (Tecan Infinite M1000). The results are shown as the 665 nm/620 nm ratio multiplied by 10^4. The detected signal was inversely proportional to the concentration of cAMP in the sample. […] Each experiment was performed three times (n = 3), and each data point was in triplicate.

[3] = tested on: prepulse-induced inhibition of the acoustic startle response; assay: Prepulse inhibition of the acoustic startle response; type: in vivo, Wistar rats; details: MK-801 0.3 mg/kg, rats
Procedure: The procedure was performed according to [Czyrak et al., 2003]. On the day before the experiment, the animals were subjected to a single startle session consisting of two trials, each presented 20 times during the session. During the first trial, a 120 dB, 40 ms pulse was presented, and on the second trial this pulse was preceded by a 75 dB, 20 ms prepulse. On the day of the experiment, the animals were habituated to the background white noise (65 dB) for 5 min (which continued throughout the test), after that the startle session was carried out as described above. Startle response amplitude was defined as the difference between the maximum force detected during a recording window and the force measured immediately before the stimulus onset (the threshold was set at 10 g). For each animal, the amplitudes were averaged separately for each type of trial. The PPI was calculated as the difference between the amplitudes of the pulse (P) and the prepulse + pulse (PP+P), divided by the amplitude of the pulse alone [([P - (PP + P)]/P)×100].

[4] = target: T1, mGlu7 receptor; assay: HTRF cAMP assay: potentiation of forskolin action without agonist (inverse agonist properties); type: cell-based; details: T-REx 293 cells, 5 μM forskolin
Procedure: as §1
Both compounds dose-dependently potentiated forskolin action, elevating cAMP concentration in the T-REx 293 cells (Figure 2B). […] This effect was not observed for an antagonist of mGluR7 – XAP044.

In the case of N[C@@H](CCC(=O)O)C(=O)O [L-Glu], the Ki [1] is given as 869 µM and the “L-Glu EC80 concentration” value [2] is given as 6260 µM.

For C[C@]12N[C@H](Cc3ccccc31)c1ccccc12 [MK-801, (5S,10R)-(+)-5-Methyl-10,11-dihydro-5H-dibenzo[a,d]cyclo-hepten-5,10-imine maleate], the “Prepulse-induced inhibition of the acoustic startle response after MK-801” value [3] was 16 % of control.

With O=c1c(Oc2ccc(I)cc2)coc2cc(O)ccc12 [XAP044] the “Potentiation of forskolin action (inverse agonist effect)” value [4] was “not observed”.
